Patent US10316293B2, “Methods for producing single pluripotent stem cells and differentiation thereof” (LifeScan, Inc., priority 2007, dated 2019)

B1: Wnt3a: Wnt3a (R&D Systems), 10 ng/ml in the definitive endoderm protocol (protein, UniProt P56704 19-352, looked up)
Protein Wnt-3a: SYPIWWSLAVGPQYSSLGSQPILCASIPGLVPKQLRFCRNYVEIMPSVAEGIKIGIQECQHQFRGRRWNCTTVHDSLAIFGPVLDKATRESAFVHAIASAGVAFAVTRSCAEGTAAICGCSSRHQGSPGKGWKWGGCSEDIEFGGMVSREFADARENRPDARSAMNRHNNEAGRQAIASHMHLKCKCHGLSGSCEVKTCWWSQPDFRAIGDFLKDKYDSASEMVVEKHRESRGWVETLRPRYTYFKVPTERDLVYYEASPNFCEPNPETGSFGTRDRTCNVSSHGIDGCDLLCCGRGHNARAERRREKCRCVFHWCCYVSCQECTRVYDVHTCK

Assays:
[1] = system: Human embryonic stem cells H9p33; experiment: Cell releasing enzyme panel: passage of hES cell clusters as single cells, recovered cells counted with trypan blue; format: cell-based; settings: for CELL NUMBER: recovered cells/well after three days on MATRIGEL, reseeded at 200,000 cells/well (collagenase: clusters, 30 minute incubation, 1:5 dilution)
Method: Human embryonic stem cells H9p33 cells grown in clusters in a 6 well dish were incubated with the following enzymes; TrypLE™ Express (stable tryspin-like enzyme (Invitrogen (Carlsbad, Calif.)), TrypLE™ Select (animal origin-free trypsin-like enzyme Invitrogen (Carlsbad, Calif.)), trypsin/EDTA (0.05%), or trypsin (0.25%), for two minutes at 36° C. All enzymes released the cells within two minutes except trypsin. Release with trypsin was achieved after five minutes at 36° C. Cells were reseeded at 200,000 cells/well into a 6 well plate coated with MATRIGEL™ and allowed to expand for three days. Human embryonic stem cells were also passed as clusters with collagenase (30 minute incubation) and reseeded at a 1:5 dilution on MATRIGEL™-coated wells, similar to the counted TrypLE™ Express cells. After three days, the hESC were released by a five minute incubation with TrypLE™ Express. Cells were incubated with 0.01% trypan blue and then counted (Table 1). Cell viability immediately after release was greater than 98% for all enzymes tested. Passage of human embryonic stem cells with collagenase is the standard passaging method. […] TrypLE™ Select and TrypLE™ Express were the best enzymes evaluated and were further tested in a time course experiment, Example 3.

[2] = system: H1 passage 37 hES cells; experiment: Passage of hES cells directly from MEF feeders to MATRIGEL with enzymes; format: cell-based, human
Method: In an effort to move to a feeder free culture of hES cells from a feeder based culture, H1 passage 37 hES cells that had been supported by a MEF feeder layer in hESC media and grown for 5 days on 10 cm^2 wells of 6 well plates were passaged. The cells were passaged with either TrypLE™, Accutase™, or 1 mg/ml of collagenase.
Before adding enzyme to the cells, the spent media was aspirated, 1 ml PBS (no Ca^2+, or Mg^2+) was added to each well, was aspirated again, and then 1 ml of room temperature enzyme (collagenase, Accutase™, or TrypLE™) was added. Accutase™ or TrypLE™ were used at stock concentration after reaching room temperature. Collagenase was removed from −80° C. freezer, thawed, mixed with 9 ml DMEM/F12, sterile filtered, and allowed to reach room temperature before use.
The cells were incubated in enzyme at 37° C. for 10 min. […] One ml of 2% Probumin in DMEM-F12 was added to each well and the combined total volume in the well was transferred to a 50 ml sterile conical tube, making sure to lift and suspend as many cells as possible.
The cells were centrifuged for 5 minutes at 200×g followed by an additional wash with 2% Probumin and centrifugation for 5 minutes at 200×g. Cell were then resuspended in MEF conditioned media and plated at a 1 to 3.5 ratio onto MATRIGEL™ (1:30 dilution in DMEM) coated T25 flasks, and placed in a 37° C., 5% CO2, humidified incubator.
Cell number was calculated by counting with an Improved Neubauer hemocytomer. […] Given a 1 to 3.5 split ratio, we plated the Accutase treated cells at a seeding density of 2.72 million cells/T25flask or 108,000 cells/cm^2, the TrypLE™ treated cells at a seeding density 2.65 million cells/T25flask or 105,000 cells/cm^2. It is assume that Collagenase treated wells were seeded at a similar density (105,000 to 108,000 cells/cm^2), since there was no appreciable difference in hES density from well to well before enzyme treatment. An additional flask was plated with Collagenase lifted cells for counting purposes at the next passage.
Cells were maintained for 4 days with daily changes of MEF conditioned media supplemented with […] of bFGF. After 4 days in culture the cultures were confluent, and the single cell treated hES cells formed monolayers of hES cells with occasional pockets of fibroblasts, while the cluster passaged hES cells formed large colony style clusters of hES cells (FIG. 13). These cells were then passaged again.
As previously described, the cells were incubated in enzyme at 37° C. for 10 min. […] The additional collagenase flask was lifted with Accutase™. The single cells were then with an Improved Neubauer hemocytometer.
Two ml of 2% Probumin in DMEM-F12 was then added to each flask after enzyme incubation, the total volume (˜4 ml) from the flask was pipetted up and down 5-10 times in order to suspend as many cells as possible. The suspension was then transferred to a 50 ml conical tube and centrifuged for 5 min at 200×g. Cells were then resuspended in MEF conditioned media supplemented with […] of bFGF, and then plated to T25 flasks precoated with 1:30 MATRIGEL™ at a ratio of 1:4.
Given that the cells were passaged at a 1:4 ratio, the cells were plated at a density of 58,000 cell/cm^2 for Accutase™ passage, 51,000 cell/cm^2 for TrypLE™ passage, and 35,000 cell/cm^2.
Cells were then grown for an additional 6 days, with daily media change of MEF conditioned media supplemented with 16 ng/ml of bFGF.

[3] = system: hES H9scp18; experiment: Definitive endoderm differentiation of hES single cells in 96 well plates, IN Cell 1000 cell number and Sox17 staining; format: cell-based, human; settings: 10 ng/ml Wnt3a, with 100 ng/ml Activin A, 0.5% FBS, two days; 40 wells
Method: hES H9scp18 were seeded into Packard View 96-well plates (Perkin-Elmer) coated with 1:30 growth factor reduced MATRIGEL™ at a density of 14,000 cells/cm^2. The cells were grown for three to four days in MEF conditioned medium and then treated using a DE differentiation protocol. A subset of 40 wells was treated with a standard protocol (10 ng/ml Wnt3a, 100 ng/ml Activin A, and 0.5% FBS in DMEM:F12 for two days). A second subset of 40 wells was treated with the GSK3b inhibitor IX (100 nM; EMD Chemicals, La Jolla, Calif.) instead of Wnt3a. This was followed by treatment for both subsets for three days with 100 ng/ml Activin A and 2% FBS in DMEM:F12. At the end of culture, cells were fixed with 4% paraformaldehyde at room temperature for 20 minutes, washed three times with PBS, and stored in 100 ul PBS overnight. Cells were permeabilized with 0.5% Triton X-100 (Sigma-Aldrich), either at room temperature for 20 minutes or at 4° C. for five minutes, then washed three times with PBS and blocked with 4% chicken serum (Invitrogen-Gibco, Carlesbad, Calif.) in PBS for 30 minutes at room temperature. […]

[4] = T25 flask on 1:30 MATRIGEL, MEF conditioned media

Molecule | time to release the cells ([1]; 36° C.) | recovered cell counts / maintaining cell attachment/growth (in words) ([1]; after three days culture, compared with collagenase) | CELL NUMBER [1] | density after four days in culture [2, 4] | density after four days in culture, cells total [2, 4] [million cells total] | growth and morphology after two passages ([2]; additional 6 days on MATRIGEL after second passage) | lifting of cells from the dish ([2]; first passage from MEF feeders, 10 min at 37° C.) | density of lifted cells ([2]; first passage from MEF feeders, hemocytometer count) | lifting of cells from plastic and MATRIGEL ([2]; second passage, 10-minute treatment at 37° C.) | number of cell nuclei per well [3]
TRYPSIN | five | significantly less effective at maintaining cell attachment/growth | 0.1 10^5 |  |  |  |  |  |  | 
Collagenase |  |  | 3.5 10^5 | 138,000 cell/cm^2 | 3.45 | form large colonies of dense and homogeneous cells | did not lift cells | not countable by hemocytometer | did not lift cells | 
B1 |  |  |  |  |  |  |  |  |  | highest number of cell nuclei per well with little variability between wells
